Ki data for 48 compounds are collected here from patent publication US8927559B2, “Quinazolinone-type compounds as CRTH2 antagonists” (Merck Sharp & Dohme Corp., priority 2010, dated 2015).

pKi: −log10 of the molar value. Several values for one entry are separate records, joined by “and”; a condition that tells them apart may be missing. Equal values may be shown once.

This experiment has as its target T1, CRTH2 receptor (hCRTH2) (Homo sapiens, UniProt Q9Y5Y4).
T1 construct: expressed in transfected cells; host or cells: HEK cells (HEK-hCRTH2 cell line), membranes
T1 sequence (Q9Y5Y4 1-395): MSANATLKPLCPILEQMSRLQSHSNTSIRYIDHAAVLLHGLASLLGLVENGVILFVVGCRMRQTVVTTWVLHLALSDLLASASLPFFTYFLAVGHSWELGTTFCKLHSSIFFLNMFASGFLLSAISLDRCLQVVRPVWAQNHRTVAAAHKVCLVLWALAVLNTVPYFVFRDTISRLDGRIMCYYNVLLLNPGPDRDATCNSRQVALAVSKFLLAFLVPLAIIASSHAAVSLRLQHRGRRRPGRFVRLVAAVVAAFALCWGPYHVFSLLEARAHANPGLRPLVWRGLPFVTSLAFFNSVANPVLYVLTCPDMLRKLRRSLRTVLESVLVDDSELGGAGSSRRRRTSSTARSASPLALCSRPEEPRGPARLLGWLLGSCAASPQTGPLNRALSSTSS
The experiment can be described thus: Radioligand binding assay ([3H]PGD2 competition, membranes of HEK-hCRTH2 cell line). The conditions noted are these: 3.0 nM [3H]PGD2, HEK-hCRTH2 membranes, 60 min, room temperature; read-out: Ki. The procedure:
Competing ligands were diluted in dimethylsulfoxide (Me2SO) that was kept constant at 1% (v/v) of the final incubation volume. The reaction was initiated by the addition of 8-20 μg of membrane protein prepared from a HEK-hCRTH2 cell line. Total and non-specific binding were determined in the absence and the presence of […] PGD2, respectively. […] The reaction was routinely conducted for 60 min at room temperature and terminated by rapid filtration through prewetted (0.3% polyethyleneimine) 96-well printed filtermate (Wallac) using a Tomtec harvester. After washing with cold buffer, the filter was dried for 2 minutes in microwave, and Meltilex Scintillator sheet (Wallac) was melted on for 2 min.
Broadly, the pKi is the Ki on a negative log10 scale, so that one unit is a factor of ten. Regarding `O=C(O)CCCCc1nc2cc(C3=NOC(c4ccncc4)C3)ccc2c(=O)n1-c1ccc(Cl)cc1` (stereo not drawn) [Example 15M], the negative-log Ki (pKi) is ≥ 8.00.

Consider `COc1cccc(C2CC(c3ccc4c(=O)n(-c5ccc(F)cc5)c(CCCCC(=O)O)nc4c3)=NO2)c1` (stereo not drawn) [Example 15N], for which the pKi was ≥ 8.00.

As for `O=C(O)CCCCc1nc2cc(C3=NOC(c4cccc(Cl)c4)C3)ccc2c(=O)n1-c1ccc(F)cc1` (stereo not drawn) [Example 15P], the pKi is ≥ 8.00.

For the compound `N#Cc1ccc(C2CC(c3ccc4c(=O)n(-c5ccc(F)cc5)c(CCCCC(=O)O)nc4c3)=NO2)cc1` (stereo not drawn) [Example 15Q], the pKi was ≥ 8.00.

Take `CC(C)(C)OC(=O)N1CCC2(CC1)CC(c1ccc3c(=O)n(-c4ccc(Cl)cc4)c(CCCCC(=O)O)nc3c1)=NO2` [Example 15T]: the pKi was ≥ 8.00.

On to `CC(=O)N1CCC2(CC1)CC(c1ccc3c(=O)n(-c4ccc(Cl)cc4)c(CCCCC(=O)O)nc3c1)=NO2` [Example 15U], for which the pKi was 7.30 to 8.00.

Turning to `COCC1(c2ccccc2)CC(c2ccc3c(=O)n(-c4ccc(F)cc4)c(CCCCC(=O)O)nc3c2)=NO1` (stereo not drawn) [Example 15V], the pKi was 7.30 to 8.00.

With `COCC1(c2ccccc2)CC(c2ccc3c(=O)n(-c4ccc(Cl)cc4)c(CCCCC(=O)O)nc3c2)=NO1` (stereo not drawn) [Example 15W], the pKi was 7.30 to 8.00.

On to `O=C(O)CCCCc1nc2cc(C3=NOC4(CCCCC4)C3)ccc2c(=O)n1-c1ccc(F)cc1` [Example 15X], for which the pKi is ≥ 8.00.

As to `O=C(O)CCCCc1nc2cc(C3=NOC4(CCCCC4)C3)ccc2c(=O)n1-c1ccc(Cl)cc1` [Example 15Y], the pKi was ≥ 8.00.

With `N#CC1CC2(CC(c3ccc4c(=O)n(-c5ccc(Cl)cc5)c(CCCCC(=O)O)nc4c3)=NO2)C1` (stereo not drawn) [Example 15Z], the pKi is ≥ 8.00.

With `CC1(c2ccccc2)CC(c2ccc3c(=O)n(-c4ccc(Cl)cc4)c(CCCCC(=O)O)nc3c2)=NO1` (stereo not drawn) [Example 15i], the pKi was ≥ 8.00.

As to `COc1cccc(C2CC(c3ccc4c(=O)n(-c5ccc(Cl)cc5)c(CCCCC(=O)O)nc4c3)=NO2)c1` (stereo not drawn) [Example 15o], the pKi was ≥ 8.00.

Take `O=C(O)CCCCc1nc2cc(-c3cn(Cc4ccccc4)nn3)ccc2c(=O)n1-c1ccc(F)cc1` [Example 17, 5-[7-(1-benzyl-1H-1,2,3-triazol-4-yl)-3-(4-fluorophenyl)-4-oxo-3,4-dihydroquinazolin-2-yl]pentanoic acid]: the pKi was ≥ 8.00.

Take `O=C(O)CCCCc1nc2cc(-c3c[nH]nn3)ccc2c(=O)n1-c1ccc(F)cc1` [Example 18, 5-[3-(4-fluorophenyl)-4-oxo-7-(1H-1,2,3-triazol-4-yl)-3,4-dihydroquinazolin-2-yl]pentanoic acid]: the pKi was 7.30 to 8.00.

For the compound `O=C(O)CCCCc1nc2cc(-c3cn(Cc4ccc(F)cc4)nn3)ccc2c(=O)n1-c1ccc(F)cc1` [Example 19, 5-{7-[1-(4-fluorobenzyl)-1H-1,2,3-triazol-4-yl]-3-(4-fluorophenyl)-4-oxo-3,4-dihydroquinazolin-2-yl}pentanoic acid], the pKi is ≥ 8.00.

`CS(=O)(=O)c1ccc(Cn2cc(-c3ccc4c(=O)n(-c5ccc(F)cc5)c(CCCCC(=O)O)nc4c3)nn2)cc1` [Example 19D]: the pKi was ≥ 8.00 and 8.92.

Regarding `O=C(O)CCCCc1nc2cc(-c3cn(-c4cccnc4)nn3)ccc2c(=O)n1-c1ccc(F)cc1` [Example 20, 5-{3-(4-fluorophenyl)-4-oxo-7-[1-(pyridin-3-yl)-1H-1,2,3-triazol-4-yl]-3,4-dihydroquinazolin-2-yl}pentanoic acid], the pKi is ≥ 8.00.

On to `O=C(O)CCCCc1nc2cc(-n3cc(C4CC4)nn3)ccc2c(=O)n1-c1ccc(F)cc1` [Example 21, 5-[7-(4-cyclopropyl-1H-1,2,3-triazol-1-yl)-3-(4-fluorophenyl)-4-oxo-3,4-dihydroquinazolin-2-yl]pentanoic acid], for which the negative-log Ki (pKi) was ≥ 8.00.

With `CC(C)(O)c1cn(-c2ccc3c(=O)n(-c4ccc(F)cc4)c(CCCCC(=O)O)nc3c2)nn1` [Example 21C], the pKi was 7.30 to 8.00.

In the case of `O=C(O)CCCCc1nc2cc(-n3cc(-c4ccccc4)nn3)ccc2c(=O)n1-c1ccc(F)cc1` [Example 21D], the pKi was ≥ 8.00.

Take `O=C(O)CCCCc1nc2cc(-n3cc(Cc4ccccc4)nn3)ccc2c(=O)n1-c1ccc(F)cc1` [Example 21E]: the pKi was ≥ 8.00.

In the case of `O=C(O)CCCCc1nc2cc(-c3nc(Cc4ccc(F)cc4)no3)ccc2c(=O)n1-c1ccc(F)cc1` [Example 22C], the pKi is 7.30 to 8.00.

As to `COc1ccccc1S(=O)(=O)NCc1cc(-c2ccc3c(=O)n(-c4ccc(F)cc4)c(CCCCC(=O)O)nc3c2)no1` [Example 24, 5-(3-(4-fluorophenyl)-7-(5-((2-methoxyphenylsulfonamido)methyl)isoxazol-3-yl)-4-oxo-3,4-dihydroquinazolin-2-yl)pentanoic acid], the pKi was ≥ 8.00.

As to `O=C(O)CCCCc1nc2cc(-c3cc(CNC(=O)c4ccccc4)on3)ccc2c(=O)n1-c1ccc(F)cc1` [Example 24F], the pKi was ≥ 8.00.

For `Cc1ccc(S(=O)(=O)NCc2cc(-c3ccc4c(=O)n(-c5ccc(F)cc5)c(CCCCC(=O)O)nc4c3)no2)cc1` [Example 24G], the pKi was ≥ 8.00.

Take `O=C(O)CCCCc1nc2cc(-c3cc(CNS(=O)(=O)c4ccc(F)cc4)on3)ccc2c(=O)n1-c1ccc(F)cc1` [Example 24H]: the pKi is ≥ 8.00.

In the case of `O=C(O)CCCCc1nc2cc(-c3cc(CNS(=O)(=O)Cc4ccccc4)on3)ccc2c(=O)n1-c1ccc(F)cc1` [Example 24J], the pKi is ≥ 8.00.

As to `CC(C)(C)c1ccc(S(=O)(=O)NCc2cc(-c3ccc4c(=O)n(-c5ccc(F)cc5)c(CCCCC(=O)O)nc4c3)no2)cc1` [Example 24L], the pKi is 7.30 to 8.00.

For `O=C(O)CCCCc1nc2cc(-c3cc(CNS(=O)(=O)c4ccc(-c5ccccc5)cc4)on3)ccc2c(=O)n1-c1ccc(F)cc1` [Example 24M], the pKi is 7.30 to 8.00 and 7.39.

Consider `O=C(O)CCCCc1nc2cc(-c3cc(CNS(=O)(=O)c4cc(F)cc(F)c4)on3)ccc2c(=O)n1-c1ccc(F)cc1` [Example 24N], for which the negative logarithm of the Ki (pKi) is ≥ 8.00.

For the compound `O=C(O)CCCCc1nc2cc(-c3cc(CNS(=O)(=O)c4ccc(F)c(F)c4)on3)ccc2c(=O)n1-c1ccc(F)cc1` [Example 24P], the pKi is ≥ 8.00.

With `CC(C)(C)OC(=O)NCc1cc(-c2ccc3c(=O)n(-c4ccc(F)cc4)c(CCCCC(=O)O)nc3c2)no1` [Example 24Q], the pKi is ≥ 8.00.

For the compound `O=C(O)CCCCc1nc2cc(-c3cc(CNC(=O)c4ccc(F)cc4)on3)ccc2c(=O)n1-c1ccc(F)cc1` [Example 24R], the pKi was 7.30 to 8.00.

Turning to `O=C(O)CCCCc1nc2cc(-c3cc(CNS(=O)(=O)c4ccc(OC(F)(F)F)cc4)on3)ccc2c(=O)n1-c1ccc(F)cc1` [Example 24i], the pKi is ≥ 8.00.

Regarding `O=C(O)CCCCc1nc2cc(-c3cc(CNS(=O)(=O)c4ccc(Cl)cc4)on3)ccc2c(=O)n1-c1ccc(F)cc1` [Example 24o], the pKi is ≥ 8.00.

Regarding `O=C(O)CCCCc1nc2cc(-c3cc(Cc4ccc(F)cc4)on3)ccc2c(=O)n1-c1ccc(F)cc1` [Example 25, 5-(7-(5-(4-fluorobenzyl)isoxazol-3-yl)-3-(4-fluorophenyl)-4-oxo-3,4-dihydroquinazolin-2-yl)pentanoic acid], the pKi was ≥ 8.00 and 9.00.

For the compound `O=C(O)CCCCc1nc2cc(-c3cc([C@H](O)c4ccc(F)cc4)on3)ccc2c(=O)n1-c1ccc(F)cc1` [Example 25C], the pKi is ≥ 8.00.

Consider `O=C(O)CCCCc1nc2cc(-c3cc([C@@H](O)c4ccc(F)cc4)on3)ccc2c(=O)n1-c1ccccc1` [Example 25D], for which the pKi was ≥ 8.00.

As for `O=C(O)CCCCc1nc2cc(-c3cc([C@H](O)c4ccc(F)cc4)on3)ccc2c(=O)n1-c1ccccc1` [Example 25E], the pKi is ≥ 8.00.

`O=C(O)CCCCc1nc2cc(-c3cc(Cc4ccc(F)cc4)on3)ccc2c(=O)n1-c1ccccc1` [Example 25F]: the pKi is ≥ 8.00.

Regarding `O=C(O)CCCCc1nc2cc(-c3cc(C(O)c4ccc5ccccc5n4)on3)ccc2c(=O)n1-c1ccc(F)cc1` (stereo not drawn) [Example 25G], the pKi is ≥ 8.00.

For `O=C(O)CCCCc1nc2cc(-c3cc(C(O)c4ccc5ccccc5n4)on3)ccc2c(=O)n1-c1ccc(F)cc1` (stereo not drawn) [Example 25H], the pKi is 7.30 to 8.00.

With `O=C(O)CCCCc1nc2cc(-c3cc(Cc4ccc5ccccc5c4)on3)ccc2c(=O)n1-c1ccc(F)cc1` [Example 25J], the pKi is ≥ 8.00.

`O=C(O)CCCCc1nc2cc(-c3cc(Cc4cnc5ccccc5n4)on3)ccc2c(=O)n1-c1ccc(F)cc1` [Example 25L]: the pKi was ≥ 8.00.

As to `O=C(O)CCCCc1nc2cc(-c3cc(C(O)c4ccc5ccccc5c4)on3)ccc2c(=O)n1-c1ccc(F)cc1` (stereo not drawn) [Example 25i], the pKi is ≥ 8.00.

With `C[C@@]1(Cc2ccccc2)CC(c2ccc3c(=O)n(-c4ccc(F)cc4)c(CCCCC(=O)O)nc3c2)=NO1` [Example 26, (R)-5-(7-(5-benzyl-5-methyl-4,5-dihydroisoxazol-3-yl)-3-(4-fluorophenyl)-4-oxo-3,4-dihydroquinazolin-2-yl)pentanoic acid], the pKi was ≥ 8.00 and 8.13.

`C[C@@]1([C@@H](O)c2ccccc2)CC(c2ccc3c(=O)n(-c4ccc(F)cc4)c(CCCCC(=O)O)nc3c2)=NO1` [Example 26C]: the pKi was 7.30 to 8.00.
